Results as given in PubChem BioAssay (NCI).
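Dose response: 5 concentrations. Exposure: 48 h. Format: 96-well plates. Endpoint: linear interpolation; highest concentration if not reached. GI50 marks 50% less growth. The concentration for full growth arrest is given as TGI.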

What was measured:
Experiment in all cases: NCI tumour cell line growth inhibition, 48 h
UO-31 renal = tested on: UO-31 renal
MOLT-4 leukemia = tested on: MOLT-4 leukemia
IGROV1 ovarian = tested on: IGROV1 ovarian
TK-10 renal = tested on: TK-10 renal
NCI-H226 lung = tested on: NCI-H226 lung
HS 578T breast = tested on: HS 578T breast
NCI-H23 lung = tested on: NCI-H23 lung
LOX IMVI melanoma = tested on: LOX IMVI melanoma
HT29 colon = tested on: HT29 colon
SR leukemia = tested on: SR leukemia

Structure (SMILES) | GI50 (UO-31 renal) | TGI (UO-31 renal) | GI50 (MOLT-4 leukemia) | TGI (MOLT-4 leukemia) | GI50 (IGROV1 ovarian) | TGI (IGROV1 ovarian) | GI50 (TK-10 renal) | TGI (TK-10 renal) | GI50 (NCI-H226 lung) | TGI (NCI-H226 lung) | GI50 (HS 578T breast) | TGI (HS 578T breast) | GI50 (NCI-H23 lung) | TGI (NCI-H23 lung) | GI50 (LOX IMVI melanoma) | TGI (LOX IMVI melanoma) | GI50 (HT29 colon) | TGI (HT29 colon) | TGI (SR leukemia) | GI50 (SR leukemia)
Cc1cc(O)cc2c1[C@]1(C)CCC3C(C)(C)CCC[C@]3(C)[C@H]1C2 (stereo partly specified) | 20.5 µM | 36.4 µM | 28.1 µM | 98.6 µM | 20.5 µM | 36.9 µM | 18.7 µM | 36.4 µM | 22.4 µM | 41.4 µM | 22.6 µM | 44.6 µM | 22.5 µM | 42 µM | 19.5 µM | 35.8 µM | 18.5 µM | 35.5 µM | – | –
CNC(=S)NC(=O)c1c(Cl)n(C(=O)OC(C)(C)C)c2ccccc12 | 73.8 µM | > 100 µM | – | – | 21 µM | > 100 µM | 97.5 µM | > 100 µM | > 100 µM | > 100 µM | 45.8 µM | > 100 µM | 53.1 µM | > 100 µM | 30 µM | > 100 µM | 56.7 µM | > 100 µM | – | –
COc1cc(OC)c(SSCCCCS(=O)O)c(OC)c1 | – | 40.6 µM | – | 26.8 µM | – | 57.8 µM | – | 42.9 µM | – | – | – | – | – | 30.5 µM | – | 29 µM | – | 32.9 µM | – | –
CC(=O)c1cccc(C)c1C(=O)O | – | > 100 µM | – | > 100 µM | – | > 100 µM | – | > 100 µM | – | > 100 µM | – | – | – | > 100 µM | – | > 100 µM | – | > 100 µM | > 100 µM | –
COc1ccccc1C(O)(c1ccccc1)C(O)(c1ccccc1)c1ccccc1OC (stereo unspecified) | – | > 100 µM | – | > 100 µM | – | > 100 µM | – | > 100 µM | – | > 100 µM | – | – | – | > 100 µM | – | > 100 µM | – | > 100 µM | > 100 µM | –
CCN(CC)CCCNC(=O)C1COc2cc(-c3cc(=O)c4ccccc4o3)ccc2O1 (stereo unspecified) | – | > 100 µM | – | > 100 µM | – | > 100 µM | – | > 100 µM | – | > 100 µM | – | – | – | > 100 µM | – | 48.2 µM | – | > 100 µM | 47.9 µM | –
CC1=C[C@]2(O)C(=O)[C@H](C)C[C@H]3[C@@H](CC[C@@](C)(O)/C=C\2C1=O)C3(C)C | – | > 100 µM | – | > 62 µM | – | 53.1 µM | – | > 78.7 µM | – | > 79.5 µM | – | – | – | 72.6 µM | – | 34.6 µM | – | > 71.6 µM | 45.2 µM | –
COc1ccc(/C(=N\NC(=O)C(=O)NN)C(c2ccc(OC)cc2)C2(O)C(=O)Nc3ccccc32)cc1 (stereo unspecified) | – | 82.1 µM | – | > 100 µM | – | > 100 µM | – | > 100 µM | – | > 100 µM | – | – | – | > 100 µM | – | – | – | > 100 µM | > 100 µM | –
COC(=O)CC[C@]1(C)O[C@H]2[C@H]([C@@H](C)CCCC(C)=O)OC(=O)[C@@H]2C[C@H]1O | > 100 µM | > 100 µM | > 100 µM | > 100 µM | 39.4 µM | > 100 µM | 68.7 µM | > 100 µM | – | – | – | – | 67.8 µM | > 100 µM | > 100 µM | > 100 µM | > 100 µM | > 100 µM | > 100 µM | > 100 µM
